Test results reported in patent US9073895B2 (Boehringer Ingelheim International GmbH, priority 2010, dated 2015).

Key:
[1] = target: T1, recombinant human FLAP protein (Homo sapiens, UniProt P20292); assay: FLAP binding assay (SPA, displacement of [125I]L-691,831); conditions: membranes of sf9 cells expressing human FLAP, [125I]L-691,831 probe; read-out: hFLAP binding IC50
T1 construct: made in house; host or cells: Sf9 insect cells (membrane fraction, 100,000 x g pellet)
T1 sequence (P20292 1-161): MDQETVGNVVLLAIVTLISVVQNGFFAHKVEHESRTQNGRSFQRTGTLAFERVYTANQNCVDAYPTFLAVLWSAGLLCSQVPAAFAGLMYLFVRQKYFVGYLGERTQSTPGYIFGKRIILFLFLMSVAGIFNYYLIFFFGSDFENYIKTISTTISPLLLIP
Outline: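 Membranes from sf9 cells expressing human FLAP (5 μg/well) were bound to WGA SPA beads (200 μg/well). Nonspecific binding was defined with 10 μM unlabelled L-691,831.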

[2] = tested on: synthesis of LTB4 in human whole blood; assay: Human whole blood LTB4 production inhibition assay; assay type: cell-based; conditions: heparinized human whole blood, calcimycin 20 μM, plasma LTB4; read-out: HuWB IC50
Experimental: Compounds are additionally tested in a human whole blood assay to determine their ability to inhibit the synthesis of LTB4 in a cellular system. Compounds are combined with heparinized human whole blood and incubated for 15 minutes at 37° C. Calcimycin (20 μM final, prepared in phosphate-buffered saline, pH 7.4) is then added and the mixture is incubated for another 30 minutes at 37° C. The samples are centrifuged for 5 min at low speed (1500×g) and the plasma layer is removed. Plasma LTB4 concentrations are then measured using an antibody-based homogenous time-resolved fluorescence method (CisBio, Bedford, Mass.).

IC50 [1] [µM]	IC50 [2] [µM]	Structure (SMILES)
0.009	3.22	CC(C)C(C)(C(=O)Nc1ccccn1)c1ccc(-c2cnc(N)nc2)cc1 (centres unmarked) [Example 127, 2-[4-(2-aminopyrimidin-5-yl)phenyl]-2,3-dimethyl-N-(pyridin-2-yl)butanamide]
0.00235	0.0745	Nc1ncc(-c2ccc(C3(C(=O)Nc4ccc(-c5ccncc5)cn4)CCC3)cc2)cn1 [Example 238]
0.0175	0.955	Nc1ncc(-c2ccc(C3(C(=O)Nc4ccncn4)CCC3)cc2)cn1 [Example 185, 1-[4-(2-aminopyrimidin-5-yl)phenyl]-N-(pyrimidin-4-yl)cyclobutanecarboxamide]
0.00205	0.312	NC(=O)c1ccc(NC(=O)C2(c3ccc(-c4cnc(N)nc4)cc3)CCC2)nc1 [Example 93, 6-[({1-[4-(2-aminopyrimidin-5-yl)phenyl]cyclobutyl}carbonyl)amino]pyridine-3-carboxamide]
0.0177	0.706	Nc1ncc(-c2ccc(C3(C(=O)Nc4ccnnc4)CCC3)cc2)cn1 [Example 215, 1-[4-(2-aminopyrimidin-5-yl)phenyl]-N-(pyridazin-4-yl)cyclobutanecarboxamide]
0.0054	0.627	Cc1nc(-c2ccc(NC(=O)C(C)(C)c3ccc(-c4cnc(N)nc4)cc3)nc2)cs1 [Example 235, 2-[4-(2-aminopyrimidin-5-yl)phenyl]-2-methyl-N-[5-(2-methyl-1,3-thiazol-4-yl)pyridin-2-yl]propanamide]
0.49	2.9	Nc1ncc(-c2ccc(C3(C(=O)Nc4ccc(N5CCOCC5)cc4)CCOCC3)cc2)cn1 [Example 147, 4-[4-(2-aminopyrimidin-5-yl)phenyl]-N-[4-(mopholin-4-yl)phenyl]tetrahydro-2H-pyran-4-carboxamide]
0.00185	0.184	Cc1noc(-c2ccc(NC(=O)C3(c4ccc(-c5cnc(N)nc5)cc4)CCC3)nc2)n1 [Example 100, 1-[4-(2-aminopyrimidin-5-yl)phenyl]-N-[5-(3-methyl-1,2,4-oxadiazol-5-yl)pyridin-2-yl]cyclobutanecarboxamide]
0.078	1.37	Nc1ncc(-c2ccc(C3(C(=O)Nc4cccnn4)CCC3)cc2)cn1 [Example 225, 1-[4-(2-aminopyrimidin-5-yl)phenyl]-N-(pyridazin-3-yl)cyclobutanecarboxamide]
0.0275	1.95	Cc1nc(-c2ccc(NC(=O)C3(c4ccc(-c5ccc(N)nc5)cc4)CCOCC3)nc2)cs1 [Example 191, 4-[4-(6-aminopyridin-3-yl)phenyl]-N-[5-(2-methyl-1,3-thiazol-4-yl)pyridin-2-yl]tetrahydro-2H-pyran-4-carboxamide]
0.048	3.59	CC(C)(C)OC(=O)N1CCc2cc(NC(=O)C3(c4ccc(-c5cnc(N)nc5)cc4)CCOCC3)ccc2C1 [Example 150, tert-butyl 6-[({4-[4-(2-aminopyrimidin-5-yl)phenyl]tetrahydro-2H-pyran-4-yl}carbonyl)amino]-3,4-dihydroisoquinolin-2(1H)-carboxylate]
0.0101	1.65	CNc1ncc(-c2ccc(C3(C(=O)Nc4ccc(-c5csc(C)n5)cn4)CCOCC3)cc2)cn1 [Example 193, 4-{4-[2-(methylamino)pyrimidin-5-yl]phenyl}-N-[5-(2-methyl-1,3-thiazol-4-yl)pyridin-2-yl]tetrahydro-2H-pyran-4-carboxamide]
0.22	1.51	COc1cncc(-c2ccc(NC(=O)C3(c4ccc(-c5cnc(N)nc5)nc4)CCOCC3)nc2)c1 [Example 132, 4-[6-(2-aminopyrimidin-5-yl)pyridin-3-yl]-N-(5′-methoxy-3,3′-bipyridin-6-yl)tetrahydro-2H-pyran-4-carboxamide]
0.0137	3.25	Nc1ncc(-c2ccc(C3(C(=O)Nc4ccccc4)CCC3)cc2)cn1 [Example 203, 1-[4-(2-aminopyrimidin-5-yl)phenyl]-N-phenylcyclobutanecarboxamide]
0.00675	0.404	COc1ccc(-c2ccc(NC(=O)C(C)(c3ccc(-c4cnc(N)nc4)cc3)C(C)C)nc2)cn1 (centres unmarked) [Example 163, 2-[4-(2-aminopyrimidin-5-yl)phenyl]-N-(6'-methoxy-3,3'-bipyridin-6-yl)-2,3-dimethylbutanamide]
0.0145	1.06	Nc1ncc(-c2ccc(C3(C(=O)Nc4ccc(C(F)(F)F)c(F)c4)CCOCC3)cc2)cn1 [Example 83, 4-[4-(2-aminopyrimidin-5-yl)phenyl]-N-[3-fluoro-4-(trifluoromethyl)phenyl] tetrahydro-2H-pyran-4-carboxamide]
0.18	12	CC(C)(C)c1noc(NC(=O)C2(c3ccc(-c4cnc(N)nc4)cc3)CCCCC2)n1 [Example 126, 1-[4-(2-aminopyrimidin-5-yl)phenyl]-N-(3-tert-butyl-1,2,4-oxadiazol-5-yl)cyclohexanecarboxamide]
0.0126	> 3	Nc1ncc(-c2ccc(C3(C(=O)Nc4nc(-c5ccccn5)cs4)CCOCC3)cc2)cn1 [Example 59, 4-[4-(2-aminopyrimidin-5-yl)phenyl]-N-[4-(pyridin-2-yl)-1,3-thiazol-2-yl]tetrahydro-2H-pyran-4-carboxamide]
0.0192	0.577	Nc1ncc(-c2ccc(C3(C(=O)Nc4ccc(Oc5ccccc5)cn4)CCC3)cc2)cn1 [Example 194, 1-[4-(2-aminopyrimidin-5-yl)phenyl]-N-(5-phenoxypyridin-2-yl)cyclobutanecarboxamide]
0.0122	0.236	N#Cc1ccc(NC(=O)C2(c3ccc(-c4cnc(N)nc4)nc3)CCC2)cc1 [Example 98, 1-[6-(2-aminopyrimidin-5-yl)pyridin-3-yl]-N-(4-cyanophenyl)cyclobutane-carboxamide]
0.0111	0.752	COC(=O)c1ccc(NC(=O)C2(c3ccc(-c4cnc(N)nc4)cc3)CCOCC2)nc1 [Example 146, methyl 6-[({4-[4-(2-aminopyrimidin-5-yl)phenyl]tetrahydro-2H-pyran-4-yl}carbonyl)amino]pyridine-3-carboxylate]
0.0167	≥ 3	Nc1ncc(-c2ccc(C3(C(=O)Nc4ccc(Cl)c(Cl)c4)CCOCC3)cc2)cn1 [Example 13, 4-[4-(2-aminopyrimidin-5-yl)phenyl]-N-(3,4-dichlorophenyl)tetrahydro-2H-pyran-4-carboxamide]
0.0145	1.21	Nc1ncc(-c2ccc(C3(C(=O)Nc4ccc(-c5ccccc5)nc4)CCOCC3)cc2)cn1 [Example 67, 4-[4-(2-aminopyrimidin-5-yl)phenyl]-N-(6-phenylpyridin-3-yl)tetrahydro-2H-pyran-4-carboxamide]
0.084	1.63	Nc1ncc(-c2ccc(C3(C(=O)Nc4ccc(C(F)(F)F)nc4)CCOCC3)cc2)cn1 [Example 48, 4-[4-(2-aminopyrimidin-5-yl)phenyl]-N-[6-(trifluoromethyl)pyridin-3-yl]tetrahydro-2H-pyran-4-carboxamide]
0.00205	0.33	Nc1ncc(-c2ccc(C3(C(=O)Nc4ccc(-c5ncn[nH]5)cn4)CCC3)cc2)cn1 [Example 102, 1-[4-(2-aminopyrimidin-5-yl)phenyl]-N-[5-(1H-1,2,4-triazol-5-yl)pyridin-2-yl]cyclobutanecarboxamide]
